In US7943140B2, “Compositions and methods for the treatment and prophylaxis of multiple strains and subtypes of HIV-1” (priority 2006, dated 2011):
Marks after values point to notes of the source that are not given here.

Experiments:
[1] = test system: HIV-1 Tat (rTat, AA 1-72 variants); assay: Anti-Tat serum antibody titer (ELISA on rTat) after immunization of mice; type: in vivo, mouse; conditions: for Titer, GMT: mice, 1.0 mg/mouse IP; for 4 week anti-Tat titer GMT: Mouse
Experimental: (§1) Immunogens prepared as described in Example 1 were taken up in buffered saline and injected IP in mice and rats, and SC in rabbits. Unless otherwise stated mice were immunized IP with 1 mg of Immunogen at Day 0 and Week 2 and serums were obtained at Week 4 for titration. Other regimens and species were as noted in the figures.
(§2) Serums were assayed to determine anti-Tat titers by conventional ELISA methods. Briefly, Maxisorp Immuno plates were coated with 2 ng/well rTat and incubated at 22° C. for 1 hour or 4° C. overnight. After thorough washing with 0.1% triton X 100 buffer, blocking with 1% bovine serum albumin (BSA) and rewashing, serum dilutions were applied and incubated at 22° C. for 1 hour. After incubation, the plates were thoroughly washed with triton-X 100 buffer again and 1/10,000 goat anti-mouse IgG-horseradish peroxidase (HRP) conjugate (or the appropriate reagent for rat or rabbit) was applied. The plates were then incubated for 1 hour at 22° C. then washed thoroughly and developed with ABTS for 45 minutes at room temperature on a shaker table. Absorbance was measured at 405 nm. Control wells lacking serum were measured and the titration endpoint was the reciprocal of the […] dilution with an OD greater than mean+8 SDs.
(§3) Animals were purchased from Harlan Laboratories and acclimated at Molecular Diagnostic Services, Inc., for at least one week before immunization. Both BALBc and C57BL6/BALBc F1 mice were used. Lewis rats were used as indicated. Immunogens prepared as described in Example 1 were taken up in buffered saline and injected IP in mice and rats, and administered subcutaneously in Cynomolgous macaque. Animals were immunized with immunogen at Day 0 and Week 2 (day 14) and serums were obtained at Week 4 (day 28) for titration. Doses/animal are noted in Table 4, along with their anti-Tat titers.
Animals were purchased from Harlan Laboratories and acclimated at Molecular Diagnostic Services, Inc., for at least one week before immunization. Both BALBc and C57BL6/BALBc F1 mice were used. Pam2C-capped immunogens prepared as described in Example 1 were taken up in buffered saline and injected IP. Mice were immunized with 3 injections of 1.0 mg/mouse Pam2C-capped immunogen with titrations before first boost and 2 weeks after each boost according to Table 5.

[2] = test system: HIV-1 Tat (rTat, AA 1-72 variants); assay: Anti-Tat serum antibody titer (ELISA on rTat) after immunization of rats; type: in vivo, rat; conditions: for GMT: rats, week 5, against rTat REK, FIG. 11; for 4 week anti-Tat titer GMT: Rat
Experimental: as §1, §2, §3
Three rats per group were immunized with a different dosage per group of a mixture of all of the experimental immunogens encompassed by the formula Pam3[…] -S-V-D-P-(R/K/N/S)-L-(E/D)-P-W-(K/N)-H-P-G-S-amide (SEQ ID NO: 63); Tat amino acid residue 7, 9, and 12 “wobbles”) with a polar charged sequence flanked by the linkers of the Pam3C (i.e., -S-K-K-K-K-S-). This immunogen is referred to as “TUTI-K4”. Each rat was administered a dose of either 0.1 mg TUTI-K4, or 1 mg TUTI-K4 or 10 mgs TUTI-K4 at day 0. Each rat was boosted with the same dose at week 3. The serum antibody titers for each rat were measured against the full length recombinant Tat (AA 1-72) REK variant protein.

[3] = test system: full length recombinant Tat; assay: Tat depletion assay (rat immune serum on Protein A beads, sandwich ELISA); type: binding, HIV-1; conditions: said to be associated with the week 5 titers at all doses (0.1, 1, 10 mg)
Experimental: Classical techniques to measure Tat depletion could not be used due to the lack of a membrane that retained antibody but permitted rTat diffusion. Briefly, this assay employs beads coated with antibody which are exposed to rTat and incubated. The antibody binds the Tat, depending upon the amount of Tat in solution. This assay thus measures how well the antibodies in the serum deplete the quantity of full length recombinant Tat.
Control: Normal rat serum not-immunized with HIV-1 Tat B cell epitopes (10% or 1%) was bound to Protein A beads and washed.
Samples: IgG of 10% and 1% serum of the immunized rat were bound to Protein A beads and washed. Undiluted serum has an anti-Tat titer of 1,000,000, as determined according to the method described in Example 3.
Both the Protein A beads of control and of samples were then incubated at room temperature for 30 minutes with a rTat solution. After centrifugation, the levels of Tat in supernatant were measured with a sandwich ELISA. The free Tat after exposure to 10% or 1% immune serum protein A coated beads was expressed as a percentage of the free Tat after exposure to 10% or 1% normal […] serum protein A coated beads, respectively.

[4] = test system: HIV-1 Tat (rTat); assay: Anti-Tat serum antibody titer (ELISA on rTat) after immunization of Cynomolgous macaque; type: in vivo; conditions: 10.0 mg/animal subcutaneously at Day 0 and Week 2
Experimental: as §2
Animals were purchased from Harlan Laboratories and acclimated at Molecular Diagnostic Services, Inc., for at least one week before immunization. Both BALBc and C57BL6/BALBc F1 mice were used. Lewis rats were used as indicated. Immunogens prepared as described in Example 1 were taken up in buffered saline and injected IP in mice and rats, and administered subcutaneously in Cynomolgous macaque. […]

[5] = Toxicity of immunogen dose in mice; type: in vivo; conditions: Mouse; 10.0 mg/animal (400 mg/kg)
Source text: as §3

[6] = 1.0 mg/animal IP at Day 0 and Week 2

Pam2C-SSQYIKANSKFIGITELSVDP-(R/K/N/S)-L-(E/D)-P-W-(K/N)-H-P-G-S-amide [Pam2-QYIK-TEP1]
Titer, GMT ([1]; prime boost D0, W2, W4, bleed week 2): 140,000 | Titer, GMT ([1]; prime boost D0, W2, W4, bleed week 4): 950,000 | Titer, GMT ([1]; prime boost D0, W2, W4, bleed week 6): 750,000 | Titer, GMT ([1]; prime boost D0, W3, W6, bleed week 3): 160,000 | Titer, GMT ([1]; prime boost D0, W3, W6, bleed week 5): 930,000 | Titer, GMT ([1]; prime boost D0, W3, W6, bleed week 8): 3,300,000 | Titer, GMT ([1]; prime boost D0, W4, W8, bleed week 4): 70,000 | Titer, GMT ([1]; prime boost D0, W4, W8, bleed week 6): 400,000 | Titer, GMT ([1]; prime boost D0, W4, W8, bleed week 10): 3,000,000

Pam3C-SKKKKSQYIKANSKFIGITEL -S-V-D-P-(R/K/N/S)-L-(E/D)-P-W-(K/N)-H-P-G-S-amide [TUTI-K4]
GMT ([2]; 0.1 mg at day 0 and week 3): about 500,000 | GMT ([2]; 1 mg at day 0 and week 3): about 1,000,000 | GMT ([2]; 10 mg at day 0 and week 3): about 1,000,000 | reduction of free Tat levels [3]: greater than 99%

Pam3C-SSQYIKANSKFIGITELSVDP-(R/K/N/S)-L-(E/D)-P-W-(K/N)-H-P-G-S-amide [Pam3-QYIK-TEP1]
4 week anti-Tat titer GMT [1, 6]: 120,000* | 4 week anti-Tat titer GMT ([1]; 3.0 mg/animal IP at Day 0 and Week 2): 220,000 | geometric mean antibody titers in serum ([1]; single mouse, on all eight rTat (AA 1-72) immunodominant epitope variants, FIG. 2): > 100,000 | 4 week anti-Tat titer GMT [2, 6]: 170,000 | 4 week anti-Tat titer GMT ([2]; 10.0 mg/animal IP at Day 0 and Week 2): 460,000 | antibody titers (GMT) in serum ([2]; single rat, prime day 0, boosts at 3 and 6 weeks, bleed at 8 weeks, on all eight rTat (AA1-72) variants, FIG. 9): > 1,000,000 | 4 week anti-Tat titer GMT [4]: 900,000 | toxicity [5]: Lethal**
